The record followed here is patent publication US6479514B1, “Quinoline-aminomethyl-pyridyl derivatives with anti-helicobacter activity” (Altana Pharma AG, priority 1998, dated 2002).

In one data set the test system is Helicobacter pylori. The data set can be described thus: Activity against Helicobacter pylori, agar dilution (method of Iwahi et al.), Columbia agar, 4 days growth. The data set is classed as cell-based. To be noted: Columbia agar (Oxoid), growth period of 4 days, approximate values; for MIC50: 96 h, read-out: Appr. MIC 50. From the text:
The compounds of the formula I were investigated with respect to their activity against Helicobacter pylori following the method described by Tomoyuki Iwahi et al. (Antimicrobial Agents and Chemotherapy, 1991, 490-496) using Columbia agar (Oxoid) and a growth period of 4 days.
A general note: In agar dilution, organisms are placed on agar that contains the substance at set levels.

By melting point is commonly meant the temperature, or range, at which the solid turns liquid. Regarding `Cc1c(SCCCSCC2CN(C)C(=O)O2)ccnc1CNc1cnc2ccccc2c1` (stereo not drawn) [Compound 1, 3-Methyl-5-{3-[3-methyl-2-(quinolin-3-ylaminomethyl)pyridin4-ylsulfanyl]propylsulfanylmethyl}oxazolidin-2-one], the melting point was 98 to 100 °C. In the data set on Helicobacter pylori, the MIC50 was at most 0.1 µg/mL.

Take `Cc1c(SCCCSc2ncccn2)ccnc1CNc1cnc2ccccc2c1` [Compound 2, {3-Methyl4-[3-(pyrimidin-2-ylsulfanyl)propylsulfanyl]pyridin-2-ylmethyl}quinolin-3-ylamine]: the MIC50 with Helicobacter pylori is at most 0.1 µg/mL.

Turning to `Cc1c(SCCCN2CCNCC2)ccnc1CNc1cnc2ccccc2c1` [Compound 4, [3-Methyl-4-(3-piperazin-1-ylpropylsulfanyl)pyridin-2-ylmethyl]quinolin-3-ylamine], the melting point fell in the range of 105 to 108 °C.

With `Cc1c(OCCCCSCc2ccncc2)ccnc1CNc1cnc2ccccc2c1` [Compound 6, {3-Methyl-4-[4-(pyridin4-ylmethylsulfanyl)butoxy]pyridin-2-ylmethyl}quinolin3-ylamine], the MIC50 in the data set with Helicobacter pylori was at most 0.1 µg/mL.

For the compound `Cc1c(OCCCCSCCn2c([N+](=O)[O-])cnc2C)ccnc1CNc1cnc2ccccc2c1` [Compound 7, (3-Methyl-4-{4-[2-(2-methyl-5-nitroimidazol-1-yl)ethylsulfanyl]butoxy}pyridin-2-ylmethyl)-quinolin-3-ylamine], the melting point lay in the range of 154 to 158 °C. Moreover, the MIC50 in the data set on Helicobacter pylori was at most 0.1 µg/mL.

Consider `Cc1c(SCCSCc2ccncc2)ccnc1CNc1cnc2ccccc2c1` [Compound 8, {3-Methyl-4-[2-(pyridin-4-ylmethylsulfanyl)ethylsulfanyl]pyridin-2-ylmethyl}quinolin-3-ylamine], for which, in the data set with Helicobacter pylori, the MIC50 was at most 0.1 µg/mL.

Consider `Cc1c(SCCSCCn2c([N+](=O)[O-])cnc2C)ccnc1CNc1cnc2ccccc2c1` [Compound 9, (3-Methyl-4-{2-[2-(2-methyl-5-nitroimidazol-1-yl)ethylsulfanyl]ethylsulfanyl}pyridin-2-ylmethyl)quinolin-3-ylamine], for which the melting point was 152 to 154 °C. Also, the MIC50 in the data set with Helicobacter pylori was at most 0.1 µg/mL.

Take `Cc1c(SCCCN2CCN(Cc3ccncc3)CC2)ccnc1CNc1cnc2ccccc2c1` [Compound 10, {3-Methyl-4-[3-(4-pyridin-4-ylmethylpiperazin-1-yl)propylsulfanyl]pyridin-2-ylmethyl}-quinolin-3-ylamine]: in the data set on Helicobacter pylori, the MIC50 was at most 0.1 µg/mL.

With `Cc1c(SCCCSCC2CCCN(C)C2)ccnc1CNc1cnc2ccccc2c1.O=C(O)C(=O)O` (stereo not drawn) [Compound 11, {3-Methyl-4-[3-(1-methylpiperidin-3-ylmethylsulfanyl)propylsulfanyl]pyridin-2-ylmethyl}-quinolin-3-ylamine oxalate], the MIC50 with Helicobacter pylori is at most 0.1 µg/mL.

Turning to `Cc1c(SCCCSCc2ccncc2)ccnc1CNc1cnc2ccccc2c1` [Compound 12, {3-Methyl-4-[3-(pyridin-4-ylmethylsulfanyl)propylsulfanyl]pyridin-2-ylmethyl}quinolin-3-ylamine], in the data set on Helicobacter pylori, the MIC50 is at most 0.1 µg/mL.

With `Cc1c(SCCCCSCCn2c([N+](=O)[O-])cnc2C)ccnc1CNc1cnc2ccccc2c1` [Compound 13, (3-Methyl-4-{4-[2-(2-methyl-5-nitroimidazol-1-yl)ethylsulfanylbutyl]sulfanyl}pyridin-2-yl-methyl)quinolin-3-ylamine], in the data set with Helicobacter pylori, the “Appr. MIC 50” value was “≦0.1 μg/ml”.

`Cc1c(SCCCSCc2ccc(Cl)s2)ccnc1CNc1cnc2ccccc2c1` [Compound 14, {4-[3-(5-Chlorothiophen-2-ylmethylsulfanyl)propylsulfanyl]-3-methylpyridin-2-ylmethyl}-quinolin-3-ylamine]: the MIC50 in the data set on Helicobacter pylori was at most 0.1 µg/mL.

`Cc1c(SCCCSCCn2c([N+](=O)[O-])cnc2C)ccnc1CNc1cnc2ccccc2c1` [Compound 15, (3-Methyl-4-{3-[2-(2-methyl-5-nitroimidazol-1-yl)ethylsulfanyl]propylsulfanyl}-pyridin-2-ylmethyl)quinolin-3-ylamine] had a melting point of 133 to 135 °C. The MIC50 in the data set with Helicobacter pylori was at most 0.1 µg/mL.

For the compound `Cc1c(OCCCCSc2ncccn2)ccnc1CNc1cnc2ccccc2c1` [Compound 16, {3-Methyl-4-[4-(pyrimidin-2-ylsulfanyl)-butoxy]-pyridin-2-ylmethyl}-quinolin-3-yl-amine], the MIC50 in the data set on Helicobacter pylori was at most 0.1 µg/mL.

Take `Cc1c(SCCCSCC2CN(C(C)C)C(=O)O2)ccnc1CNc1cnc2ccccc2c1` (stereo not drawn) [Compound 17, 3-Isopropyl-5-{3-[3-methyl-2-(quinolin-3-ylaminomethyl)-pyridin-4-ylsulfanyl]-propylsulfanylmethyl}-oxazolidin-2-one]: the melting point is 100 to 104 °C. For the same compound, the MIC50 in the data set with Helicobacter pylori is at most 0.1 µg/mL.

Turning to `Cc1c(SCCCSCCCn2cc([N+](=O)[O-])nc2C)ccnc1CNc1cnc2ccccc2c1` [Compound 18, (3-Methyl-4-{3-[3-(2-methyl-4-nitro-imidazol-1-yl)-propylsulfanyl]-propylsulfanyl}-pyridin-2-ylmethyl)-quinolin-3-yl-amine], the melting point fell in the range of 95 to 99 °C. Further, in the data set on Helicobacter pylori, the MIC50 is at most 0.1 µg/mL.

`Cc1c(SCCCSCC2CN(CC3CC3)C(=O)O2)ccnc1CNc1cnc2ccccc2c1` (stereo not drawn) [Compound 19, 3-Cyclopropylmethyl-5-{3-[3-methyl-2-(quinolin-3-ylaminomethyl)-pyridin-4ylsulfanyl]-propylsulfanylmethyl}-oxazolidin-2-one] had a melting point of 78 to 81 °C. Further, the MIC50 in the data set with Helicobacter pylori was at most 0.1 µg/mL.

Regarding `Cc1c(OCCCCSCC2CCCN(C)C2)ccnc1CNc1cnc2ccccc2c1` (stereo not drawn) [Compound 20, {3-Methyl-4-[4-(1-methyl-piperidin-3-ylmethylsulfanyl)-butoxy]-pyridin-2-ylmethyl}-quinolin-3-yl-amine], the MIC50 with Helicobacter pylori was at most 0.1 µg/mL.

For the compound `Cc1c(OCCSCc2ccncc2)ccnc1CNc1cnc2ccccc2c1` [Compound 21, {3-Methyl-4-[2-(pyridin-4-ylmethylsulfanyl)-ethoxy]-pyridin-2-ylmethyl}-quinolin-3-yl-amine], the MIC50 in the data set with Helicobacter pylori was at most 0.1 µg/mL.

`Cc1c(OCCSCCn2c([N+](=O)[O-])cnc2C)ccnc1CNc1cnc2ccccc2c1` [Compound 22, (3-Methyl-4-{2-[2-(2-methyl-5-nitro-imidazol-1-yl)-ethylsulfanyl]-ethoxy}-pyridin-2-ylmethyl)-quinolin-3-yl-amine] came in with a melting point of 152 to 155 °C. Also, the MIC50 in the data set with Helicobacter pylori is at most 0.1 µg/mL.

The compound `Cc1c(OCCCSCCn2c([N+](=O)[O-])cnc2C)ccnc1CNc1cnc2ccccc2c1` [Compound 23, (3-Methyl-4-{3-[2-(2-methyl-5-nitro-imidazol-1-yl)-ethylsulfanyl]-propoxy}-pyridin-2-ylmethyl)-quinolin-3-yl-amine] gave a melting point of 138 to 141 °C. Besides, the MIC50 in the data set on Helicobacter pylori was at most 0.1 µg/mL.

Regarding `Cc1c(OCCCSCc2ccncc2)ccnc1CNc1cnc2ccccc2c1` [Compound 24, {3-Methyl-4-[3-(pyridin-4-ylmethylsulfanyl)-propoxy]-pyridin-2-ylmethyl}-quinolin-3-yl-amine], in the data set on Helicobacter pylori, the MIC50 was at most 0.1 µg/mL.

On to `Cc1c(SCCCSCCO)ccnc1CNc1cnc2ccccc2c1` [Compound 25, 2-{3-[3-Methyl-2-(quinolin-3-ylaminomethyl)-pyridin-4-ylsulfanyl]-propylsulfanyl}-ethanol], for which the melting point fell in the range of 125 to 126 °C. Moreover, the MIC50 in the data set with Helicobacter pylori was at most 0.1 µg/mL.

In the case of `Cc1c(OCCCCSCCO)ccnc1CNc1cnc2ccccc2c1` [Compound 26, 2-{4-[3-Methyl-2-(quinolin3-ylaminomethyl)-pyridin-4-yloxy]-butylsulfanyl}-ethanol], the melting point lay in the range of 119 to 120 °C. Further, the MIC50 in the data set on Helicobacter pylori is at most 0.1 µg/mL.

On to `Cc1c(SCCCN2CCN(CC3CN(Cc4ccncc4)C(=O)O3)CC2)ccnc1CNc1cnc2ccccc2c1` (stereo not drawn) [Compound 27, 5-(4-{3-[3-Methyl-2-(quinolin-3-ylaminomethyl)-pyridin-4-ylsulfanyl]-propyl}-piperazin-1-ylmethyl)-3-pyridin-4-ylmethyl-oxazolidin-2-one], for which the MIC50 in the data set with Helicobacter pylori was at most 0.1 µg/mL.

Consider `Cc1c(OCCOCCSCc2ccncc2)ccnc1CNc1cnc2ccccc2c1` [Compound 28, (3-Methyl-4-{2-[2-(pyridin-4-ylmethylsulfanyl)-ethoxy]-ethoxy}-pyridin-2-ylmethyl)-quinolin-3-yl-amine], for which the MIC50 in the data set with Helicobacter pylori was at most 0.1 µg/mL.

Consider `Cc1c(SCCCSCc2ccccn2)ccnc1CNc1cnc2ccccc2c1` [Compound 29, {3-Methyl-4-[3-(pyridin-2-ylmethylsulfanyl)-propylsulfanyl]-pyridin-2-ylmethyl}-quinolin-3-yl-amine], for which the MIC50 in the data set with Helicobacter pylori is at most 0.1 µg/mL.

The compound `Cc1c(OCCOCCSCc2cccnc2)ccnc1CNc1cnc2ccccc2c1` [Compound 30, (3-Methyl-4-{2-[2-(pyridin-3-ylmethylsulfanyl)-ethoxy]-ethoxy}-pyridin-2-ylmethyl)-quinolin-3-yl-amine] had a melting point of 84 to 86 °C. Moreover, the MIC50 in the data set with Helicobacter pylori was at most 0.1 µg/mL.

Compound `Cc1c(OCCOCCSCc2ccccn2)ccnc1CNc1cnc2ccccc2c1` [Compound 31, (3-Methyl-4-{2-[2-(pyridin-2-ylmethylsulfanyl)-ethoxy]-ethoxy}-pyridin-2-ylmethyl)-quinolin-3-yl-amine] showed a melting point of 65 to 67 °C. In the data set on Helicobacter pylori, the MIC50 was at most 0.1 µg/mL.

As to `Cc1c(OCCSCc2cccnc2)ccnc1CNc1cnc2ccccc2c1` [Compound 33, {3-Methyl-4-[2-(pyridin-3-ylmethylsulfanyl)-ethoxy]-pyridin-2-ylmethyl}-quinolin-3-yl-amine], the MIC50 in the data set with Helicobacter pylori was at most 0.1 µg/mL.

As to `Cc1c(OCCSCc2ccccn2)ccnc1CNc1cnc2ccccc2c1` [Compound 34, {3-Methyl-4-[2-(pyridin-2-ylmethylsulfanyl)-ethoxy]-pyridin-2-ylmethyl}-quinolin-3-yl-amine], the MIC50 in the data set with Helicobacter pylori is at most 0.1 µg/mL.

For the compound `Cc1c(SCCSCc2cccnc2)ccnc1CNc1cnc2ccccc2c1` [Compound 35, {3-Methyl-4-[2-(pyridin-3-ylmethylsulfanyl)-ethylsulfanyl]-pyridin-2-ylmethyl}-quinolin-3-yl-amine], the MIC50 in the data set on Helicobacter pylori is at most 0.1 µg/mL.
